Patent US12281122B1, “PI3K inhibitors” (Cogent Biosciences, Inc., priority 2023, dated 2025)

Tests used:
[1] = tested on: T47D (PI3Kα-H1047R) cell line; test: HTRF phospho-AKT(S473) cell assay in T47D cells; format: cell-based, human
Method in brief: (§1)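 Cells plated overnight (T47D in RPMI/10% FBS/0.2 units/mL insulin; SKBR3 in McCoy's 5A/10% FBS), then given 12-point 1:3 compound series (top 5 μM T47D, 10 μM SKBR3; ≤0.5% DMSO) for 2 h at 37° C. SKBR3 stimulated with 70 ng/ml PDGF-BB for final 15 min. Lysate pAKT(S473) by HTRF; IC50 calculated.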

[2] = tested on: SKBR3 (PI3Kα-Wild Type) cell line; test: HTRF phospho-AKT(S473) cell assay in SKBR3 cells; format: cell-based, human
Method in brief: as §1

[3] = Homo sapiens; HTRF phospho-AKT(S473), T47D (PI3Kα-H1047R) cells, 2 hours compound incubation
[4] = Homo sapiens, SK-BR-3; HTRF phospho-AKT(S473), SKBR3 (PI3Kα-Wild Type) cells, 2 hours compound incubation, PDGF-BB stimulated
[5] = Homo sapiens; T47D (PI3Kα-H1047R) cells, HTRF phospho-AKT(S473), 2 hours compound incubation
[6] = Homo sapiens, SK-BR-3; SKBR3 (PI3Kα-Wild Type) cells, HTRF phospho-AKT(S473), 2 hours compound incubation, PDGF-BB stimulated

Row | IC50 [1, 3] | IC50 [2, 4] | IC50 [1, 5] | IC50 [2, 6] | SMILES
1 | 0.25 to 0.5 µM | 1 to 5 µM | – | – | Cc1cc([C@@H](C)Nc2ccc(Cl)nc2C(=O)NS(C)(=O)=O)c2nc(N3C[C@@H]4[C@H](C3)[C@H]4c3ncn(C)n3)n(C)c(=O)c2c1 [Compound 507, 6-chloro-3-(((R)-1-(3,6-dimethyl-2-((1R,5S,6R)-6-(1-methyl-1H-1,2,4-triazol-3-yl)-3-azabicyclo[3.1.0]hexan-3-yl)-4-oxo-3,4-dihydroquinazolin-8-yl)ethyl)amino)-N-(methylsulfonyl) picolinamide]
2 | – | – | 0.25 to 0.5 µM | ≥ 5 µM | C[C@@H](Nc1ccc(Cl)nc1C(=O)NS(C)(=O)=O)c1cc(C2CC2)cc2c(=O)n(C)c(N3CCC(c4nn(C)cc4F)CC3)nc12 [Compound 397, (R)-6-chloro-3-((1-(6-cyclopropyl-2-(4-(4-fluoro-1-methyl-1H-pyrazol-3-yl)piperidin-1-yl)-3-methyl-4-oxo-3,4-dihydroquinazolin-8-yl)ethyl)amino)-N-(methylsulfonyl) picolinamide]
3 | – | – | 0.25 to 0.5 µM | ≥ 5 µM | Cc1cc([C@@H](C)Nc2ccc(Cl)nc2C(=O)NS(C)(=O)=O)c2nc(N3CCC(n4nc(C#N)c5ccccc54)CC3)n(C)c(=O)c2c1 [Compound 304, (R)-6-chloro-3-((1-(2-(4-(3-cyano-1H-indazol-1-yl)piperidin-1-yl)-3,6-dimethyl-4-oxo-3,4-dihydroquinazolin-8-yl)ethyl)amino)-N-(methylsulfonyl) picolinamide]
4 | < 0.25 µM | 1 to 5 µM | – | – | Cc1cc([C@@H](C)Nc2ccc(Cl)nc2C(=O)NS(C)(=O)=O)c2nc(N3CCC(c4ncc(C(F)F)cn4)CC3)n(C)c(=O)c2c1 [Compound 504, (R)-6-chloro-3-((1-(2-(4-(5-(difluoromethyl)pyrimidin-2-yl)piperidin-1-yl)-3,6-dimethyl-4-oxo-3,4-dihydroquinazolin-8-yl)ethyl)amino)-N-(methylsulfonyl) picolinamide]
5 | – | – | < 0.25 µM | 1 to 5 µM | Cc1cc([C@@H](C)Nc2ccc(Cl)nc2C(=O)NS(C)(=O)=O)c2nc(N3CCC[C@@H](c4cncc(C#N)c4)C3)n(C)c(=O)c2c1 (relative stereo) [Compound 263, 6-chloro-3-(((R)-1-(2-((R*)-3-(5-cyanopyridin-3-yl)piperidin-1-yl)-3,6-dimethyl-4-oxo-3,4-dihydroquinazolin-8-yl)ethyl)amino)-N-(methylsulfonyl) picolinamide]
6 | < 0.25 µM | 1 to 5 µM | – | – | Cc1cc([C@@H](C)Nc2ccc(Cl)nc2C(=O)NS(C)(=O)=O)c2nc(N3CCC(c4cn(C(C)C)nn4)CC3)n(C)c(=O)c2c1 [Compound 573, (R)-6-chloro-3-((1-(2-(4-(1-isopropyl-1H-1,2,3-triazol-4-yl)piperidin-1-yl)-3,6-dimethyl-4-oxo-3,4-dihydroquinazolin-8-yl)ethyl)amino)-N-(methylsulfonyl) picolinamide]
7 | – | – | < 0.25 µM | 1 to 5 µM | Cc1cc([C@@H](C)Nc2ccc(Cl)nc2C(=O)NS(C)(=O)=O)c2nc(N3CCC(c4nn(C)cc4C)CC3)n(C)c(=O)c2c1 [Compound 248, ®-6-chloro-3-((1-(2-(4-(1,4-dimethyl-1H-pyrazol-3-yl)piperidin-1-yl)-3,6-dimethyl-4-oxo-3,4-dihydroquinazolin-8-yl)ethyl)amino)-N-(methylsulfonyl) picolinamide]
8 | 0.25 to 0.5 µM | 1 to 5 µM | – | – | Cc1cc([C@@H](C)Nc2ccc(Cl)nc2C(=O)NS(C)(=O)=O)c2nc(N3CCC[C@H](c4cnc(C)c(C#N)c4)C3)n(C)c(=O)c2c1 (relative stereo) [Compound 615, 6-chloro-3-(((R)-1-(2-((R*)-3-(5-cyano-6-methylpyridin-3-yl)piperidin-1-yl)-3,6-dimethyl-4-oxo-3,4-dihydroquinazolin-8-yl)ethyl)amino)-N-(methylsulfonyl) picolinamide]
9 | 0.25 to 0.5 µM | ≥ 5 µM | – | – | Cc1cc([C@@H](C)Nc2ccc(Cl)nc2C(=O)NS(C)(=O)=O)c2nc(N3CCC(c4cnn(C(C)C)n4)CC3)n(C)c(=O)c2c1 [Compound 744, (R)-6-chloro-3-((1-(2-(4-(2-isopropyl-2H-1,2,3-triazol-4-yl)piperidin-1-yl)-3,6-dimethyl-4-oxo-3,4-dihydroquinazolin-8-yl)ethyl)amino)-N-(methylsulfonyl) picolinamide]
10 | < 0.25 µM | 1 to 5 µM | – | – | Cc1cc([C@@H](C)Nc2ccc(Cl)nc2C(=O)NS(C)(=O)=O)c2nc(N3CCN(c4nc(C)ncc4F)CC3)n(C)c(=O)c2c1 [Compound 575, (R)-6-chloro-3-((1-(2-(4-(5-fluoro-2-methylpyrimidin-4-yl)piperazin-1-yl)-3,6-dimethyl-4-oxo-3,4-dihydroquinazolin-8-yl)ethyl)amino)-N-(methylsulfonyl) picolinamide]
11 | 0.25 to 0.5 µM | ≥ 5 µM | – | – | COc1cc([C@H]2[C@@H]3CN(c4nc5c([C@@H](C)Nc6ccc(Cl)nc6C(=O)NS(C)(=O)=O)cc(C)cc5c(=O)n4C)C[C@@H]32)c(F)cn1 [Compound 479, 6-chloro-3-(((R)-1-(2-((1R,5S,6S)-6-(5-fluoro-2-methoxypyridin-4-yl)-3-azabicyclo[3.1.0]hexan-3-yl)-3,6-dimethyl-4-oxo-3,4-dihydroquinazolin-8-yl)ethyl)amino)-N-(methylsulfonyl) picolinamide]
12 | – | – | < 0.25 µM | 1 to 5 µM | Cc1cc([C@@H](C)Nc2ccc(Cl)nc2C(=O)NS(C)(=O)=O)c2nc(N3Cc4cn(-c5cnn(C)c5)nc4C3)n(C)c(=O)c2c1 [Compound 245, (R)-6-chloro-3-((1-(3,6-dimethyl-2-(2-(1-methyl-1H-pyrazol-4-yl)-2,6-dihydropyrrolo[3,4-c]pyrazol-5(4H)-yl)-4-oxo-3,4-dihydroquinazolin-8-yl)ethyl)amino)-N-(methylsulfonyl) picolinamide]
13 | – | – | < 0.25 µM | 1 to 5 µM | Cc1cc([C@@H](C)Nc2ccc(Cl)nc2C(=O)NS(C)(=O)=O)c2nc(N3Cc4cn(-c5ccc(C#N)cn5)nc4C3)n(C)c(=O)c2c1 [Compound 219, (R)-6-chloro-3-((1-(2-(2-(5-cyanopyridin-2-yl)-2,6-dihydropyrrolo[3,4-c]pyrazol-5(4H)-yl)-3,6-dimethyl-4-oxo-3,4-dihydroquinazolin-8-yl)ethyl)amino)-N-(methylsulfonyl) picolinamide]
14 | – | – | < 0.25 µM | 1 to 5 µM | Cc1cc([C@@H](C)Nc2ccc(Cl)nc2C(=O)NS(C)(=O)=O)c2nc(N3CCc4oncc4C3)n(C)c(=O)c2c1 [Compound 276, (R)-6-chloro-3-((1-(2-(6,7-dihydroisoxazolo[4,5-c]pyridin-5(4H)-yl)-3,6-dimethyl-4-oxo-3,4-dihydroquinazolin-8-yl)ethyl)amino)-N-(methylsulfonyl) picolinamide]
15 | – | – | < 0.25 µM | 1 to 5 µM | Cc1cc([C@@H](C)Nc2ccc(Cl)nc2C(=O)NS(C)(=O)=O)c2nc(N3CCC(c4cc(C#N)n(C)n4)CC3)n(C)c(=O)c2c1 [Compound 357, (R)-6-chloro-3-((1-(2-(4-(5-cyano-1-methyl-1H-pyrazol-3-yl)piperidin-1-yl)-3,6-dimethyl-4-oxo-3,4-dihydroquinazolin-8-yl)ethyl)amino)-N-(methylsulfonyl) picolinamide]
16 | < 0.25 µM | 1 to 5 µM | – | – | Cc1cnc(O[C@@H]2CCN(c3nc4c([C@@H](C)Nc5ccc(Cl)nc5C(=O)NS(C)(=O)=O)cc(C)cc4c(=O)n3C)C2)nc1 [Compound 613, 6-chloro-3-(((R)-1-(3,6-dimethyl-2-((R)-3-((5-methylpyrimidin-2-yl)oxy)pyrrolidin-1-yl)-4-oxo-3,4-dihydroquinazolin-8-yl)ethyl)amino)-N-(methylsulfonyl) picolinamide]
17 | – | – | < 0.25 µM | 1 to 5 µM | C[C@@H](Nc1ccc(Cl)nc1C(=O)NS(C)(=O)=O)c1cc(F)cc2c(=O)n(C)c(N3C[C@@H]4[C@H](C3)[C@H]4c3cnn(C)c3)nc12 [Compound 411, 6-chloro-3-(((R)-1-(6-fluoro-3-methyl-2-((1R,5S,6S)-6-(1-methyl-1H-pyrazol-4-yl)-3-azabicyclo[3.1.0]hexan-3-yl)-4-oxo-3,4-dihydroquinazolin-8-yl)ethyl)amino)-N-(methylsulfonyl) picolinamide]
18 | 0.5 to 1 µM | ≥ 5 µM | – | – | Cc1cc([C@@H](C)Nc2ccc(Cl)nc2C(=O)NS(C)(=O)=O)c2nc(-c3ccc4nc(C)nn4c3)n(C)c(=O)c2c1 [Compound 823, (R)-6-chloro-3-((1-(3,6-dimethyl-2-(2-methyl-[1,2,4]triazolo [1,5-a]pyridin-6-yl)-4-oxo-3,4-dihydroquinazolin-8-yl)ethyl)amino)-N-(methylsulfonyl) picolinamide]
19 | < 0.25 µM | 1 to 5 µM | – | – | CCn1c(N2CCC(n3cc(C)cn3)CC2)nc2c([C@@H](C)Nc3ccc(Cl)nc3C(=O)NS(C)(=O)=O)cc(C)cc2c1=O [Compound 526, (R)-6-chloro-3-((1-(3-ethyl-6-methyl-2-(4-(4-methyl-1H-pyrazol-1-yl)piperidin-1-yl)-4-oxo-3,4-dihydroquinazolin-8-yl)ethyl)amino)-N-(methylsulfonyl) picolinamide]
20 | 0.25 to 0.5 µM | 1 to 5 µM | – | – | Cc1cc([C@@H](C)Nc2ccc(Cl)nc2C(=O)NS(C)(=O)=O)c2nc(N3CCN(c4cnc(C)c(F)c4)CC3)n(C)c(=O)c2c1 [Compound 652, (R)-6-chloro-3-((1-(2-(4-(5-fluoro-6-methylpyridin-3-yl)piperazin-1-yl)-3,6-dimethyl-4-oxo-3,4-dihydroquinazolin-8-yl)ethyl)amino)-N-(methylsulfonyl) picolinamide]
